Measured values: patent US9546401B2, “Assays and methods for selecting a treatment regimen for a subject with depression” (The General Hospital Corporation, priority 2011, dated 2017)
Read-outs that look alike come from different tables or passages of the source.

Tests used:
[1] = system: SSRI-resistant outpatients with major depressive disorder (MDD); settings: for CGI-S Mean score reduction / HDRS-17 % Remission / HDRS-17 % Response / HDRS-17 Mean score reduction / QIDS-SR % Remission / QIDS-SR % Response / QIDS-SR Mean score reduction: 15 mg/day adjunct to an SSRI
From the text: Using the sequential parallel design […] For those randomly assigned to the placebo/placebo sequence, both responders and non-responders to placebo during the first phase (n=25) remain on placebo during the second phase. […] Data from the previous double-blind, placebo-controlled study (Trial 1) can be pooled into the instant study (Trial 2) to provide a more accurate estimate of the placebo effect size, with a weighted average from the two Phases 1 (one from Trial 1 and one from Trial 2) and two Phases 2 (one from Trial 1 and one from Trial 2).
All patients are asked to take one tablet of blinded study medication in the morning, in addition to their stable dose of ongoing SSRI treatment. […] Therefore, for patients randomly assigned to the placebo/placebo sequence, the tablets of study medication are placebo during both phases of the study.
The primary efficacy measure can include the change in 17-item Hamilton Rating Scale for Depression (HAM-D-17) score. […] A remission is, for example, defined as a HAM-D-17 score less than 8 at endpoint. Secondary measures of efficacy can include change in CGI-severity, with “clinical response defined” as CGI-S of 1 or 2 at endpoint. Patients with a CGI-I score greater than 5 at any post baseline visit or a 50 percent or greater worsening of depressive symptoms from baseline to that visit are discontinued from the study. Subjects are also discontinued from the study with any emergence of suicidality, homicidality, mania, or psychosis. Additional exemplary instruments that can be administered according to the study schedule include the following: • (1) Structured Clinical Interview for DSM-IV: The SCID-I/P, administered by the clinician, proceeds by modules to diagnose the different Axis I disorders. Questions are asked exactly as written, and each is based on the individual criteria from DSM-IV. Answers are generally rated on a scale of 1-3 (1=doubtful, 2=probable, 3=definite), and, based on the number of positive answers, a diagnosis is determined by a clinician. While the entire SCID-I/P is administered at screen, the mood module is administered at each follow up visit. • (2) The MGH Antidepressant Treatment History Questionnaire (MGH-ATR): The MGH-ATR provides specific criteria for the adequate dose and adequate length of a trial for it to be considered a failure, thus allowing clinicians to systematically collect data aimed at assessing the degree of treatment-resistance of the current major depressive episode. • (3) The 28-item Hamilton Depression Scale (HAM-D-28): This version allows scoring of the HAM-D-17, 21-, 25-, and 28-item scales. This instrument is completed by the clinician by using a structured interview and defined anchor points, and aims to quantify the degree of depression over the past 7 days. The HAM-D is the most widely studied instrument for depression, and its reliability and validity are high. • (4) Clinical Global Impressions—Severity and Improvement (CGI-S, CGI-I): These two instruments are scored 1-7 by the clinician based on assessment of the patient's clinical status. They measure, based on history and scores on other instruments: a) Depressive severity (CGI-S) and b) Clinical Improvement (CGI-I). […] Safety Measurements
Data are entered and error-checked at each clinical site involved in the study. Study staff and subjects may have the option to enter self-evaluations into the system directly using DatStat Illume™. The process of data entry is supervised by the DCRP staff. Once the data set is entered and checked, analyses are conducted. Both a completer analysis of all patients finishing the trial and an intent-to-treat analysis examining all patients enrolled into the trial are used to define the severity of depression at endpoint. Examination of both study completers and all patients randomized can provide the broadest assessment of the effects of treatment in trials of such kind.

[2] = system: MDD patients, remitters at end of double-blind phase; settings: for Relapsers (HAM-D-17 > 15) during 12-month maintenance phase: 15 mg/day as adjuvant
Experimental: During each visit, patients are administered the HAM-D-28, the CGI, the QIDS-SR, the SAFTEE-SI, the MGH-CPFQ, and the MGH-SFQ (See, e.g., Table 10 below). […] Subjects are also allowed to change their antidepressant during the course of the follow-up, if deemed appropriate. For patients who refuse the 12 months of free follow-up care, a referral to a psychiatrist is offered.

[3] = SSRI + 15 mg/day versus SSRI + placebo, after 30 days

**Q.** Which results are given for CN1c2c(nc(N)[nH]c2=O)NC[C@@H]1CNc1ccc(C(=O)N[C@@H](CCC(=O)O)C(=O)O)cc1 [6(S)-5-MTHF, 6(S)-5-methyltetrahydrofolate]?
**A.** CGI-S Mean score reduction ([1]; Phase 1): −1.3; HDRS-17 % Remission ([1]; Phase 1): 15.7%; HDRS-17 % Response ([1]; Phase 1): 36.8%; HDRS-17 Mean score reduction ([1]; Phase 1): −7.5; QIDS-SR % Remission ([1]; Phase 1): 21.0%; QIDS-SR % Response ([1]; Phase 1): 36.8%; QIDS-SR Mean score reduction ([1]; Phase 1): −8.1; CGI-S Mean score reduction ([1]; Phase 2): −0.5; HDRS-17 % Remission ([1]; Phase 2): 11.1%; HDRS-17 % Response ([1]; Phase 2): 27.7%; HDRS-17 Mean score reduction ([1]; Phase 2): −3.8; QIDS-SR % Remission ([1]; Phase 2): 5.5%; QIDS-SR % Response ([1]; Phase 2): 11.1%; QIDS-SR Mean score reduction ([1]; Phase 2): −1.3; CGI-S Mean score reduction ([1]; Pooled Phases 1 and 2): −0.92; HDRS-17 % Remission ([1]; Pooled Phases 1 and 2): 13.4%; HDRS-17 % Response ([1]; Pooled Phases 1 and 2): 32.3%; HDRS-17 Mean score reduction ([1]; Pooled Phases 1 and 2): −5.58; QIDS-SR % Remission ([1]; Pooled Phases 1 and 2): 13.3%; QIDS-SR % Response ([1]; Pooled Phases 1 and 2): 23.9%; QIDS-SR Mean score reduction ([1]; Pooled Phases 1 and 2): −4.7; degree of improvement (HAM-D-17, QIDS-SR, CGI-S) [1, 3]: greater degree of reduction in the scores of HAM-D-17, QIDS-SR and CGI-S; percentage of remitters (HAM-D-17 or QIDS-SR) [1, 3]: no significant difference; percentage of responders (50% or greater reduction in HAM-D-17) [1, 3]: response rate is higher for the 6(S)-5-MTHF group than the placebo group; Relapsers (HAM-D-17 > 15) during 12-month maintenance phase ([2]; Trial 1, 2 remitters entering maintenance): 0; Relapsers (HAM-D-17 > 15) during 12-month maintenance phase ([2]; Trial 2, 9 remitters entering maintenance): 0; relapse during 12-month maintenance phase ([2]; remitters at end of double-blind phase, 15 mg/day adjunctive): did not have a relapse
